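Tested at 5 concentrations; 48 h exposure; 96-well plates; endpoints linearly interpolated, else capped at highest concentration. At the GI50, growth is halved.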 Calls of active or inactive are those of the source. Cut-off read from the data, not from the text of the source: active = GI50 up to about 1.1 µM and inactive = higher.
What was measured:
Assay in all cases: NCI anticancer screen, dose series, 48 h
K562 = tested on: K562
SK-OV-3 = tested on: SK-OV-3
SF-295 = tested on: SF-295
EKVX = tested on: EKVX
HOP-62 = tested on: HOP-62
NCI-H522 = tested on: NCI-H522
TK-10 = tested on: TK-10
A498 = tested on: A498
MOLT-4 = tested on: MOLT-4
HCT-116 = tested on: HCT-116
BT-549 = tested on: BT-549
UACC-257 = tested on: UACC-257
HCC 2998 = tested on: HCC 2998
RXF 393 = tested on: RXF 393
MDA-MB-435 = tested on: MDA-MB-435
ACHN = tested on: ACHN
NCI/ADR-RES = tested on: NCI/ADR-RES
SK-MEL-5 = tested on: SK-MEL-5
OVCAR-4 = tested on: OVCAR-4

Measured: GI50

COc1cc2c(cc1OC)C(Cc1ccccc1CCCl)=NCC2
inactive: K562 30.3 µM | SK-OV-3 > 100 µM | SF-295 33.7 µM | EKVX > 100 µM | HOP-62 > 100 µM | NCI-H522 15.9 µM | TK-10 > 100 µM | A498 > 100 µM | MOLT-4 38.6 µM | HCT-116 21.1 µM | BT-549 40.3 µM | UACC-257 50.8 µM | HCC 2998 24.2 µM | RXF 393 43.7 µM | MDA-MB-435 40.1 µM | ACHN 73.3 µM | NCI/ADR-RES 25.8 µM | SK-MEL-5 22.5 µM | OVCAR-4 45.6 µM

Cc1ccc(CCCCCOc2ccc(C3=NCCO3)cc2)s1
inactive: K562 9.29 µM | SK-OV-3 > 100 µM | SF-295 > 100 µM | EKVX > 100 µM | HOP-62 > 100 µM | NCI-H522 > 100 µM | TK-10 > 100 µM | A498 1.81 µM | MOLT-4 > 100 µM | HCT-116 > 100 µM | BT-549 > 100 µM | UACC-257 > 100 µM | HCC 2998 > 100 µM | RXF 393 > 100 µM | MDA-MB-435 4.85 µM | ACHN > 100 µM | NCI/ADR-RES > 100 µM | SK-MEL-5 > 100 µM | OVCAR-4 > 100 µM

O=S(=O)(Nc1nc2ccccc2nc1Nc1ccc2ccccc2c1)c1ccccc1
inactive: K562 22.5 µM | SK-OV-3 7.78 µM | SF-295 5.07 µM | EKVX 11.7 µM | HOP-62 10.7 µM | NCI-H522 5.15 µM | TK-10 27.1 µM | A498 28.3 µM | MOLT-4 5.24 µM | HCT-116 7.8 µM | BT-549 15.8 µM | UACC-257 26.1 µM | HCC 2998 7.1 µM | RXF 393 20.4 µM | MDA-MB-435 10.8 µM | ACHN 17.3 µM | NCI/ADR-RES 5.73 µM | SK-MEL-5 10.9 µM | OVCAR-4 4.67 µM

CC(=O)NC1=CC(=O)C=C(Cl)C1=O
inactive: K562 33.7 µM | SK-OV-3 > 100 µM | SF-295 > 100 µM | EKVX > 100 µM | HOP-62 > 100 µM | NCI-H522 28.9 µM | TK-10 > 100 µM | A498 > 100 µM | MOLT-4 22.2 µM | HCT-116 > 100 µM | BT-549 > 100 µM | UACC-257 54.1 µM | HCC 2998 > 100 µM | RXF 393 92.5 µM | MDA-MB-435 17.9 µM | ACHN > 100 µM | NCI/ADR-RES > 100 µM | SK-MEL-5 > 100 µM | OVCAR-4 18.1 µM

Cn1ncc(NCCn2cnc3c2c(=O)n(C)c(=O)n3C)c(Cl)c1=O
inactive: K562 > 100 µM | SK-OV-3 > 100 µM | SF-295 > 100 µM | EKVX > 100 µM | HOP-62 > 100 µM | NCI-H522 > 100 µM | TK-10 > 100 µM | A498 > 100 µM | MOLT-4 > 100 µM | HCT-116 > 100 µM | BT-549 > 100 µM | UACC-257 > 100 µM | HCC 2998 > 100 µM | RXF 393 > 100 µM | MDA-MB-435 > 100 µM | ACHN > 100 µM | NCI/ADR-RES > 100 µM | SK-MEL-5 > 100 µM | OVCAR-4 > 100 µM

COC(=O)[C@]1(c2cc3ccccc3[nH]2)CC2CN(CC(=O)N(C)OC)C1C1OC(C)(C)OC21 (some centres undefined)
inactive: K562 35.2 µM | SK-OV-3 > 100 µM | SF-295 36.1 µM | EKVX 63.5 µM | HOP-62 83.9 µM | NCI-H522 > 100 µM | TK-10 56.6 µM | A498 24 µM | MOLT-4 8.32 µM | HCT-116 32.4 µM | BT-549 43 µM | UACC-257 32 µM | HCC 2998 38 µM | RXF 393 45.8 µM | MDA-MB-435 44.2 µM | ACHN 42.7 µM | NCI/ADR-RES 41.6 µM | SK-MEL-5 31 µM | OVCAR-4 36.9 µM

Reference: ChEMBL document CHEMBL1201862, “PubChem BioAssay data set” (2004)
